{
  "source": "patent US20230398130A1",
  "about": "“METHODS AND COMPOSITIONS FOR DIFFERENTIATING STEM CELLS” (Massachusetts Institute of Technology, priority 2020, published 2023)",
  "key": {"ISC-enriched organoids [1]": {"test_system": "ISC-enriched organoids", "test": "Primary screen, 384-well 2.5-D organoid differentiation (ENR+CD, 6 days): carbachol-induced lysozyme secretion (LYZ.S)", "type": "cell-based, murine", "details": "primary screen; for Dose.FC.LYZ.S: FC vs plate median; for Z.LYZ.S: standard z score; for SSMD.LYZ.S: strictly standardized mean difference", "excerpt": "(§1) High-throughput screening."}, "ISC-enriched organoids [2]": {"test_system": "ISC-enriched organoids", "test": "Primary screen, 384-well 2.5-D organoid differentiation (ENR+CD, 6 days): basal lysozyme secretion (LYZ.NS)", "type": "cell-based, murine", "details": "for Dose.FC.LYZ.NS: FC vs plate median; for Z.LYZ.NS: standard z score of FC; for SSMD.LYZ.NS: strictly standardized mean difference", "excerpt": "as §1"}, "ISC-enriched organoids [3]": {"test_system": "ISC-enriched organoids", "test": "Primary screen, 384-well 2.5-D organoid differentiation (ENR+CD, 6 days, Target Selective Inhibitor Library, vs whole-plate median): ATP (CellTiter-Glo 3D, CTG)", "details": "for Dose.FC.CTG: FC vs plate median; for SSMD.CTG: strictly standardized mean difference"}, "[4]": {"details": "1st of the 4 dose lines of the treatment (dose not given)"}, "[5]": {"details": "2nd of the 4 dose lines of the treatment (dose not given)"}, "[6]": {"details": "3rd of the 4 dose lines of the treatment (dose not given)"}, "[7]": {"details": "4th of the 4 dose lines of the treatment (dose not given)"}, "[8]": {"details": "primary screen, 1st of the 4 dose lines of the treatment (dose not given)"}, "[9]": {"details": "primary screen, 2nd of the 4 dose lines of the treatment (dose not given)"}, "[10]": {"details": "primary screen, 3rd of the 4 dose lines of the treatment (dose not given)"}, "[11]": {"details": "primary screen, 4th of the 4 dose lines of the treatment (dose not given)"}, "[12]": {"details": "primary screen, dose 0.08 uM, ENR+CD 6 days"}, "[13]": {"details": "primary screen, dose 0.40 uM, ENR+CD 6 days"}, "[14]": {"details": "primary screen, dose 2.00 uM, ENR+CD 6 days"}, "[15]": {"details": "primary screen, dose 10.00 uM, ENR+CD 6 days"}},
  "data": [
    {"smiles": "C=CCc1cccc(/C=N/NC(=O)CN2CCN(Cc3ccccc3)CC2)c1O", "note": "[PAC-1]", "values": [
      {"measurement": "Dose.FC.LYZ.S", "setting": "ISC-enriched organoids [1]; Dose 0.08 uM", "value": 0.128, "unit": "log 2 fold change"},
      {"measurement": "Dose.FC.LYZ.S", "setting": "ISC-enriched organoids [1]; Dose 0.40 uM", "value": 0.059, "unit": "log 2 fold change"},
      {"measurement": "Dose.FC.LYZ.S", "setting": "ISC-enriched organoids [1]; Dose 2.00 uM", "value": "−0.006", "unit": "log 2 fold change"},
      {"measurement": "Dose.FC.LYZ.S", "setting": "ISC-enriched organoids [1]; Dose 10.00 uM", "value": 0.092, "unit": "log 2 fold change"},
      {"measurement": "Dose.FC.LYZ.NS", "setting": "ISC-enriched organoids [2]; Dose 0.08 uM, primary screen", "value": 0.157, "unit": "log 2 fold change"},
      {"measurement": "Z.LYZ.NS", "setting": "ISC-enriched organoids [2]; Dose 0.08 uM", "value": 1.365},
      {"measurement": "Dose.FC.LYZ.NS", "setting": "ISC-enriched organoids [2]; Dose 0.40 uM, primary screen", "value": 0.053, "unit": "log 2 fold change"},
      {"measurement": "Z.LYZ.NS", "setting": "ISC-enriched organoids [2]; Dose 0.40 uM", "value": 0.457},
      {"measurement": "Dose.FC.LYZ.NS", "setting": "ISC-enriched organoids [2]; Dose 2.00 uM, primary screen", "value": 0.126, "unit": "log 2 fold change"},
      {"measurement": "Z.LYZ.NS", "setting": "ISC-enriched organoids [2]; Dose 2.00 uM", "value": 1.094},
      {"measurement": "Dose.FC.LYZ.NS", "setting": "ISC-enriched organoids [2]; Dose 10.00 uM, primary screen", "value": 0.068, "unit": "log 2 fold change"},
      {"measurement": "Z.LYZ.NS", "setting": "ISC-enriched organoids [2]; Dose 10.00 uM", "value": 0.596},
      {"measurement": "Dose.FC.CTG", "setting": "ISC-enriched organoids [3]; Dose 0.08 uM, primary screen", "value": 0.095, "unit": "log 2 fold change"},
      {"measurement": "Z.CTG", "setting": "ISC-enriched organoids [3]; Dose 0.08 uM, standard z score of FC", "value": 0.228},
      {"measurement": "Dose.FC.CTG", "setting": "ISC-enriched organoids [3]; Dose 0.40 uM, primary screen", "value": 0.113, "unit": "log 2 fold change"},
      {"measurement": "Z.CTG", "setting": "ISC-enriched organoids [3]; Dose 0.40 uM, standard z score of FC", "value": 0.270},
      {"measurement": "Dose.FC.CTG", "setting": "ISC-enriched organoids [3]; Dose 2.00 uM, primary screen", "value": "−0.241", "unit": "log 2 fold change"},
      {"measurement": "Z.CTG", "setting": "ISC-enriched organoids [3]; Dose 2.00 uM, standard z score of FC", "value": "−0.576"},
      {"measurement": "Dose.FC.CTG", "setting": "ISC-enriched organoids [3]; Dose 10.00 uM, primary screen", "value": 0.002, "unit": "log 2 fold change"},
      {"measurement": "Z.CTG", "setting": "ISC-enriched organoids [3]; Dose 10.00 uM, standard z score of FC", "value": 0.004}
    ]},
    {"smiles": "CCn1c(=O)c2c(nc(/C=C/c3ccc(OC)c(OC)c3)n2C)n(CC)c1=O", "note": "[Istradefylline]", "values": [
      {"measurement": "Z.LYZ.S", "setting": "ISC-enriched organoids [1]; [4]", "value": "−0.190"},
      {"measurement": "Z.LYZ.S", "setting": "ISC-enriched organoids [1]; [5]", "value": "−0.560"},
      {"measurement": "Z.LYZ.S", "setting": "ISC-enriched organoids [1]; [6]", "value": "−0.621"},
      {"measurement": "Z.LYZ.S", "setting": "ISC-enriched organoids [1]; [7]", "value": "−0.367"},
      {"measurement": "SSMD.LYZ.S", "setting": "ISC-enriched organoids [1]; [4]", "value": "−0.139"},
      {"measurement": "SSMD.LYZ.S", "setting": "ISC-enriched organoids [1]; [5]", "value": "−0.661"},
      {"measurement": "SSMD.LYZ.S", "setting": "ISC-enriched organoids [1]; [6]", "value": "−0.578"},
      {"measurement": "SSMD.LYZ.S", "setting": "ISC-enriched organoids [1]; [7]", "value": "−0.289"},
      {"measurement": "SSMD.LYZ.NS", "setting": "ISC-enriched organoids [2]; [8]", "value": "−0.084"},
      {"measurement": "SSMD.LYZ.NS", "setting": "ISC-enriched organoids [2]; [9]", "value": "−0.362"},
      {"measurement": "SSMD.LYZ.NS", "setting": "ISC-enriched organoids [2]; [10]", "value": "−0.012"},
      {"measurement": "SSMD.LYZ.NS", "setting": "ISC-enriched organoids [2]; [11]", "value": "−0.336"},
      {"measurement": "Z.CTG", "setting": "ISC-enriched organoids [3]; Dose 0.08 uM, primary screen, standard z score", "value": "−0.107"},
      {"measurement": "Z.CTG", "setting": "ISC-enriched organoids [3]; Dose 0.40 uM, primary screen, standard z score", "value": 0.158},
      {"measurement": "Z.CTG", "setting": "ISC-enriched organoids [3]; Dose 2.00 uM, primary screen, standard z score", "value": "−0.375"},
      {"measurement": "Z.CTG", "setting": "ISC-enriched organoids [3]; Dose 10.00 uM, primary screen, standard z score", "value": "−0.091"},
      {"measurement": "SSMD.CTG", "setting": "ISC-enriched organoids [3]; [8]", "value": "−0.113"},
      {"measurement": "SSMD.CTG", "setting": "ISC-enriched organoids [3]; [9]", "value": 0.225},
      {"measurement": "SSMD.CTG", "setting": "ISC-enriched organoids [3]; [10]", "value": "−0.412"},
      {"measurement": "SSMD.CTG", "setting": "ISC-enriched organoids [3]; [11]", "value": "−0.106"}
    ]},
    {"smiles": "COC1CCN(C(=O)c2cc(Cc3n[nH]c(=O)c4ccccc34)ccc2F)CC1", "note": "[AZD2461]", "values": [
      {"measurement": "Dose.FC.LYZ.S", "setting": "ISC-enriched organoids [1]; dose 0.08 uM, ENR+CD 6 days", "value": 0.097, "unit": "log 2 fold change"},
      {"measurement": "Dose.FC.LYZ.S", "setting": "ISC-enriched organoids [1]; dose 0.40 uM, ENR+CD 6 days", "value": 0.015, "unit": "log 2 fold change"},
      {"measurement": "Dose.FC.LYZ.S", "setting": "ISC-enriched organoids [1]; dose 2.00 uM, ENR+CD 6 days", "value": "−0.100", "unit": "log 2 fold change"},
      {"measurement": "Dose.FC.LYZ.S", "setting": "ISC-enriched organoids [1]; dose 10.00 uM, ENR+CD 6 days", "value": "−0.224", "unit": "log 2 fold change"},
      {"measurement": "Dose.FC.LYZ.NS", "setting": "ISC-enriched organoids [2]; [12]", "value": 0.038, "unit": "log 2 fold change"},
      {"measurement": "Z.LYZ.NS", "setting": "ISC-enriched organoids [2]; primary screen, dose 0.08 uM", "value": 0.334},
      {"measurement": "Dose.FC.LYZ.NS", "setting": "ISC-enriched organoids [2]; [13]", "value": "−0.038", "unit": "log 2 fold change"},
      {"measurement": "Z.LYZ.NS", "setting": "ISC-enriched organoids [2]; primary screen, dose 0.40 uM", "value": "−0.327"},
      {"measurement": "Dose.FC.LYZ.NS", "setting": "ISC-enriched organoids [2]; [14]", "value": "−0.074", "unit": "log 2 fold change"},
      {"measurement": "Z.LYZ.NS", "setting": "ISC-enriched organoids [2]; primary screen, dose 2.00 uM", "value": "−0.641"},
      {"measurement": "Dose.FC.LYZ.NS", "setting": "ISC-enriched organoids [2]; [15]", "value": "−0.172", "unit": "log 2 fold change"},
      {"measurement": "Z.LYZ.NS", "setting": "ISC-enriched organoids [2]; primary screen, dose 10.00 uM", "value": "−1.497"},
      {"measurement": "Dose.FC.CTG", "setting": "ISC-enriched organoids [3]; [12]", "value": 0.073, "unit": "log 2 fold change"},
      {"measurement": "Z.CTG", "setting": "ISC-enriched organoids [3]; primary screen, dose 0.08 uM, standard z score of FC", "value": 0.174},
      {"measurement": "Dose.FC.CTG", "setting": "ISC-enriched organoids [3]; [13]", "value": "−0.040", "unit": "log 2 fold change"},
      {"measurement": "Z.CTG", "setting": "ISC-enriched organoids [3]; primary screen, dose 0.40 uM, standard z score of FC", "value": "−0.095"},
      {"measurement": "Dose.FC.CTG", "setting": "ISC-enriched organoids [3]; [14]", "value": "−0.232", "unit": "log 2 fold change"},
      {"measurement": "Z.CTG", "setting": "ISC-enriched organoids [3]; primary screen, dose 2.00 uM, standard z score of FC", "value": "−0.555"},
      {"measurement": "Dose.FC.CTG", "setting": "ISC-enriched organoids [3]; [15]", "value": "−0.336", "unit": "log 2 fold change"},
      {"measurement": "Z.CTG", "setting": "ISC-enriched organoids [3]; primary screen, dose 10.00 uM, standard z score of FC", "value": "−0.803"}
    ]}
  ]
}
